Assay results taken from US7238670B2, “Human glucagon-like-peptide-1 mimics and their use in the treatment of diabetes and related conditions” (Bristol-Myers Squibb Company, priority 2001, dated 2007).
Where two headings read alike, the source gives them in different places.

Target: T1, human glucagon-like peptide 1 receptor (Homo sapiens, UniProt P43220)
T1 construct: Full-length human glucagon-like peptide 1 receptor was stably expressed in CHO-K1 cells; expressed in transfected cells; host or cells: CHO-K1 (clone CHO-GLP1R-19)
T1 sequence (P43220 24-463): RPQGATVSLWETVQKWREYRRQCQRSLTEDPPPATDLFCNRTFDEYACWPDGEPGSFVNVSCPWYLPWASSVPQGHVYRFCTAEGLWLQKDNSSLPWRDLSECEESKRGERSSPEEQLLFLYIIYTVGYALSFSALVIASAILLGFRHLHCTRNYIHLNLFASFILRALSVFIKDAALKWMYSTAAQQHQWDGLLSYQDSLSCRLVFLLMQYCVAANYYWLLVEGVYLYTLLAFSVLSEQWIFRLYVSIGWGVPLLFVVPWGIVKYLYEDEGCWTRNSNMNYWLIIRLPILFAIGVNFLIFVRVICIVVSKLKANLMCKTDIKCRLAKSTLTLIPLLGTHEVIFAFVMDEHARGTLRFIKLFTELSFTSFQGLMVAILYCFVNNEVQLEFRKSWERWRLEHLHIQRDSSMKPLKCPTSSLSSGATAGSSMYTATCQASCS
Experiment: Cyclic AMP determination in CHO-K1 cells stably expressing the GLP-1 receptor (cAMP SPA)
Type: cell-based
Conditions: CHO-GLP1R-19 cells, read-out: EC50, stimulation of cAMP production
Protocol: CHO-GLP-1R-19 cells (2,500 in 100 μl of media) were plated into each well of a 96-well tissue culture microtiter plate and incubated in 5% CO2 atmosphere at 37° C., for 72 h. On the day of the assay, cells were washed once with 100 μl of PBS. […] After incubation at room temperature for 15-18 h, plates were counted 2 min each/well in a TopCount NXT(Packard).
The data obtained was processed in Excel-fit database. From a cyclic AMP standard curve, the amounts of released cAMP were determined and the % maximal activity was calculated and plotted against log compound concentration. The data was analyzed by nonlinear regression curve fit (sigmoidal dose) to determine the EC50 of the compounds.

Row | EC50 (same assay) | EC50 (determined as in Example 13) | Compound
1 | > 1000 µM | – | C[C@H](NC(=O)[C@@H](N)Cc1c[nH]cn1)C(=O)N[C@@H](CCC(=O)O)C(=O)NCC(=O)N[C@H](C(=O)N[C@@H](Cc1ccccc1)C(=O)N[C@H](C(=O)N[C@@H](CO)C(=O)N[C@@H](CC(=O)O)C(N)=O)[C@@H](C)O)[C@@H](C)O
2 | – | 1.1 µM | C[C@H](NC(=O)[C@@H](N)Cc1cnc[nH]1)C(=O)N[C@@H](CCC(=O)O)C(=O)NCC(=O)N[C@H](C(=O)N[C@@H](Cc1ccccc1)C(=O)N[C@H](C(=O)N[C@@H](CO)C(=O)N[C@@H](CC(=O)O)C(=O)N[C@@H](Cc1ccc(-c2ccccc2)cc1)C(=O)N[C@@H](Cc1ccc(-c2ccccc2)cc1)C(N)=O)[C@@H](C)O)[C@@H](C)O [GLP-1 11-mer peptide analog, His-Ala-Clu-Gly-Thr-Phe-Thr-Ser-Asp-Bip-Bip-NH2]
